# Measurements: patent publication US8497283B2, “Autotaxin inhibitors” (Merck Patent GmbH, priority 2009, dated 2013)
# Biological target: T1, recombinant autotaxin (Homo sapiens, UniProt Q13822)
# T1 construct: made in house; host or cells: Hi5 insect cells (baculovirus)
# Test: Autotaxin assay (Amplex Red fluorescence, LPC substrate)
# Assay type: biochemical
# Settings: percent of uninhibited control (100%) at 1E−05 M compound
# Description: Autotaxin activity is measured indirectly by means of Amplex Red Reagent. In this course, Amplex Red is measured as fluorogenic indicator for generated H2O2. Autotaxin converts substrate lysophosphatidylcholine (LPC) to phosphocholine and lysophosphatidylic acid (LPA). After the conversion phosphocholine is reacted with alkaline phosphatase to obtain inorganic phosphate and choline. During the next step choline is oxidized with choline oxidase to yield betaine, whereby H2O2 is generated. H2O2 reacts with Amplex Red Reagent in the presence of peroxidase (Horseradish peroxidase) in an 1:1 stochiometry and yields highly fluorescent resorufin. The generated fluorescence is measured in a reaction-dependent kinetic mode in order to enable subtraction of fluorescence signals of possible other fluorescent compounds that are not part of the reaction from total measured fluorescence.
# 1.5 μl of a standard solution or of the compounds of the invention are dissolved in 20 mM Hepes pH 7.2 with maximally 7.7% DMSO in individual concentrations. The resulting solution is pre-incubated together with 10 μl (16 ng) of highly purified recombinant autotaxin in a black 384-hole microtiter plate for 30 min at 22° C.
# Thereafter, the reaction is started through the addition of 5 μl L-a-lysophosphatidyl-choline (LPC), whereby the final concentration of LPC is 75 μM. The mixture is incubated for 90 min. at 37° C. After the incubation Amplex Red Reagent, peroxidase (Horseradish peroxidase) and choline oxidase are added. The fluorescence is immediately measured at a wavelength of 612 nm with an excitation wavelength of 485 nm in a “Tecan Ultra multimode” fluorescence reader. The activity of autotaxin is indirectly calculated via the amount of detected generated H2O2.
# For IC50 analysis, ten serial 1:3 dilutions starting at 30 μM for each compound were run in duplicates.
# IC50 values were calculated on normalized data. For normalization, control wells were added to each assay plate and the signal of uninhibited control wells was set to 100%, whereas the signal inhibited by 500 μM C14 LPA, (Avanti Polar Lipids, Cat#857120P) was set to 0%. Curves were fitted and IC50 values calculated by the following model using proprietory analysis software: Y=Bottom+(100−Bottom)/(1+10^((Log IC50−X)*HillSlope))
# Where X is the logarithm of concentration. Y is the response;
# Y starts at Bottom and goes to Top with a sigmoid shape.
# Protein: Recombinant autotaxin (baculoviral Hi5 expression)
# Substrate: L-a-lysophosphatidyl choline (chicken egg); Avanti Polar Lipids #830071P
# Standard: C14 LPA, Avanti Polar Lipids, Cat#857120P
# Detection Reagent Amplex Red Reagent; Invitrogen #A12222; dissolved in 1.923 ml of DMSO peroxidase Type VI-A (horseradish), Sigma #P6782; dissolved in 7.45 ml of test buffer, Choline Oxidase; Sigma #C5896; dissolved in 2.47 ml test buffer
# Detection Reagent Mix: 1:100 dilution of Amplex Red Regent in test buffer
# Test buffer: 200 mM Tris-HCl, Merck, Cat #1.08219, pH 7.9; 0.1% BSA, lipid free, Roche Cat#775835
row,% CTRL (1E−05) [%],Compound
1,52,"O=C(Nc1ccc(Cl)cc1)Nc1sc2c(c1C(=O)N1CCCC1)CCN(C(=O)c1ccc3[nH]nnc3c1)C2 [Compound 27, 1-[6-(1H-Benzotriazole-5-carbonyl)-3-(pyrrolidine-1-carbonyl)-4,5,6,7-tetrahydro-thieno[2,3-c]pyridin-2-yl]-3-(4-chloro-phenyl)-urea]"
2,66,"NC(=O)c1c(NC(=O)Cc2ccc(Cl)cc2F)sc2c1CCN(Cc1ccccn1)C2 [Compound 17, 2-[2-(4-Chloro-2-fluoro-phenyl)-acetylamino]-6-pyridin-2-ylmethyl-4,5,6,7-tetrahydro-thieno[2,3-c]pyridine-3-carboxylic acid amide]"
3,94,"O=C(Nc1ccc(Cl)cc1)Nc1nc2ccc(C(=O)Nc3ccc4[nH]c(=O)oc4c3)cc2s1 [Compound 31, 2-[3-(4-Chloro-phenyl)-ureido]-benzothiazole-6-carboxylic acid (2-oxo-2,3-dihydro-benzooxazol-6-yl)-amide]"

# Same assay, conditions: ten serial 1:3 dilutions starting at 30 μM, duplicates; 75 μM LPC; values given as upper bounds
row,IC50 [µM],Compound
1,< 10,"O=C(NCCc1ccc(Cl)c(Cl)c1)c1[nH]nc2c1CCN(C(=O)c1ccc3[nH]nnc3c1)C2 [Compound 37, 6-(1H-Benzotriazole-5-carbonyl)-4,5,6,7-tetrahydro-2H-pyrazolo[3,4-c]pyridine-3-carboxylic acid [2-(3,4-dichloro-phenyl)-ethyl]-amide]"
2,< 10,"NC(=O)c1c(NC(=O)Cc2ccc(Cl)cc2F)sc2c1CCN(C(=O)Cc1ccncc1)C2 [Compound 23, 2-[2-(4-Chloro-2-fluoro-phenyl)-acetylamino]-6-(2-pyridin-4-yl-acetyl)-4,5,6,7-tetrahydro-thieno[2,3-c]pyridine-3-carboxylic acid amide]"
3,< 10,"O=C(NCc1cc(Cl)cc(Cl)c1)c1[nH]nc2c1CCN(C(=O)c1ccc3[nH]nnc3c1)C2 [Compound 33, 6-(1H-Benzotriazole-5-carbonyl)-4,5,6,7-tetrahydro-2H-pyrazolo[3,4-c]pyridine-3-carboxylic acid 3,5-dichloro-benzylamide]"
4,< 1,"O=C(Nc1ccc2[nH]nnc2c1)c1[nH]nc2c1CCN(C(=O)OCc1ccc(OC(F)(F)F)c(Cl)c1)C2 [Compound 58, 3-(1H-Benzotriazol-5-ylcarbamoyl)-2,4,5,7-tetrahydro-pyrazolo[3,4-c]pyridine-6-carboxylic acid 3-chloro-4-trifluoromethoxy-benzyl ester]"
5,< 30,"O=C(NCCc1cccc(Cl)c1)c1[nH]nc2c1CCN(C(=O)c1ccc3[nH]nnc3c1)C2 [Compound 42, 6-(1H-Benzotriazole-5-carbonyl)-4,5,6,7-tetrahydro-2H-pyrazolo[3,4-c]pyridine-3-carboxylic acid [2-(3-chloro-phenyl)-ethyl]-amide]"
6,< 1,"CC(C)c1ccc(NC(=O)Nc2sc3c(c2C(N)=O)CCN(C(=O)c2ccc4[nH]nnc4c2)C3)cc1 [Compound 4, 6-(1H-Benzotriazole-5-carbonyl)-2-[3-(4-isopropyl-phenyl)-ureido]-4,5,6,7-tetrahydro-thieno[2,3-c]pyridine-3-carboxylic acid amide]"
7,< 1,"NC(=O)c1c(NC(=O)Nc2ccc(Cl)cc2)sc2c1CCN(C(=O)c1ccc3[nH]c(=O)oc3c1)C2 [Compound 2, 2-[3-(4-Chloro-phenyl)-ureido]-6-(2-oxo-2,3-dihydro-benzooxazole-6-carbonyl)-4,5,6,7-tetrahydro-thieno[2,3-c]pyridine-3-carboxylic acid amide]"

# The remaining lines, values behind:
row,Compound,IC50 [µM]
1,"NC(=O)c1c(NC(=O)Nc2ccc(Cl)cc2)sc2c1CCN(C(=O)c1ccc3[nH]nnc3c1)C2 [Compound 1, 6-(1H-Benzotriazole-5-carbonyl)-2-[3-(4-chloro-phenyl)-ureido]-4,5,6,7-tetrahydro-thieno[2,3-c]pyridine-3-carboxylic acid amide]",< 1
2,"COC(=O)CC(NC(=O)c1[nH]nc2c1CCN(C(=O)c1ccc3[nH]nnc3c1)C2)c1ccc(C(C)(C)C)cc1 (centres unmarked) [Compound 63, 3-{[6-(1H-Benzotriazole-5-carbonyl)-4,5,6,7-tetrahydro-2H-pyrazolo[3,4-c]pyridine-3-carbonyl]-amino}-3-(4-tert-butyl-phenyl)-propionic acid methyl ester]",< 30
3,"NC(=O)c1c(NC(=O)Cc2cccc(Cl)c2)sc2c1CCN(C(=O)c1ccc3[nH]c(=O)oc3c1)C2 [Compound 13, 2-[2-(3-Chloro-phenyl)-acetylamino]-6-(2-oxo-2,3-dihydro-benzooxazole-6-carbonyl)-4,5,6,7-tetrahydro-thieno[2,3-c]pyridine-3-carboxylic acid amide]",< 1
4,"NC(=O)c1c(NC(=O)Cc2ccc(Cl)cc2F)sc2c1CCN(C(=O)c1ccc3[nH]c(=O)oc3c1)C2 [Compound 10, 2-[2-(4-Chloro-2-fluoro-phenyl)-acetylamino]-6-(2-oxo-2,3-dihydro-benzooxazole-6-carbonyl)-4,5,6,7-tetrahydro-thieno[2,3-c]pyridine-3-carboxylic acid amide]",< 1
5,"O=C(Nc1ccc2[nH]nnc2c1)c1n[nH]c2c1CCN(C(=O)OCc1ccc(C(F)(F)F)cc1)C2 [Compound 50, 3-(1H-Benzotriazol-5-ylcarbamoyl)-1,4,5,7-tetrahydro-pyrazolo[3,4-c]pyridine-6-carboxylic acid 4-trifluoromethyl-benzyl ester]",< 1
6,"CC(C)c1ccc(NC(=O)Nc2sc3c(c2C(N)=O)CCN(C(=O)c2ccc4[nH]c(=O)oc4c2)C3)cc1 [Compound 7, 2-[3-(4-Isopropyl-phenyl)-ureido]-6-(2-oxo-2,3-dihydro-benzooxazole-6-carbonyl)-4,5,6,7-tetrahydro-thieno[2,3-c]pyridine-3-carboxylic acid amide]",< 1
7,"CC(CNC(=O)c1[nH]nc2c1CCN(C(=O)c1ccc3[nH]nnc3c1)C2)c1ccc(Cl)cc1 (centres unmarked) [Compound 35, 6-(1H-Benzotriazole-5-carbonyl)-4,5,6,7-tetrahydro-2H-pyrazolo[3,4-c]pyridine-3-carboxylic acid [2-(4-chloro-phenyl)-propyl]-amide]",< 10
8,"O=C(NCc1ccc(F)c(Br)c1)c1[nH]nc2c1CCN(C(=O)c1ccc3[nH]nnc3c1)C2 [Compound 51, 6-(1H-Benzotriazole-5-carbonyl)-4,5,6,7-tetrahydro-2H-pyrazolo[3,4-c]pyridine-3-carboxylic acid 3-bromo-4-fluoro-benzylamide]",< 1
9,"O=C(NCCc1ccc(Br)cc1)c1[nH]nc2c1CCN(C(=O)c1ccc3[nH]nnc3c1)C2 [Compound 44, 6-(1H-Benzotriazole-5-carbonyl)-4,5,6,7-tetrahydro-2H-pyrazolo[3,4-c]pyridine-3-carboxylic acid [2-(4-bromo-phenyl)-ethyl]-amide]",< 10
10,"NC(=O)c1c(NC(=O)Cc2ccc(Cl)cc2F)sc2c1CCN(C(=O)Cc1cccnc1)C2 [Compound 22, 2-[2-(4-Chloro-2-fluoro-phenyl)-acetylamino]-6-(2-pyridin-3-yl-acetyl)-4,5,6,7-tetrahydro-thieno[2,3-c]pyridine-3-carboxylic acid amide]",< 10
11,"O=C(NCCc1ccc(F)cc1)c1[nH]nc2c1CCN(C(=O)c1ccc3[nH]nnc3c1)C2 [Compound 47, 6-(1H-Benzotriazole-5-carbonyl)-4,5,6,7-tetrahydro-2H-pyrazolo[3,4-c]pyridine-3-carboxylic acid [2-(4-fluoro-phenyl)-ethyl]-amide]",< 10
12,"O=C(NCc1ccc(Cl)cc1)c1[nH]nc2c1CCN(C(=O)c1ccc3[nH]nnc3c1)C2 [Compound 34, 6-(1H-Benzotriazole-5-carbonyl)-4,5,6,7-tetrahydro-2H-pyrazolo[3,4-c]pyridine-3-carboxylic acid 4-chloro-benzylamide]",< 10
13,"O=C(NCc1cc(Cl)ccc1Cl)c1[nH]nc2c1CCN(C(=O)c1ccc3[nH]nnc3c1)C2 [Compound 38, 6-(1H-Benzotriazole-5-carbonyl)-4,5,6,7-tetrahydro-2H-pyrazolo[3,4-c]pyridine-3-carboxylic acid 2,5-dichloro-benzylamide]",< 10
